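A five-concentration, 48-hour dose response in 96-well plates underlies each endpoint, interpolated linearly between surrounding concentrations. The concentration for 50% growth inhibition is given as GI50. TGI marks complete inhibition of growth.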
Columns and labels:
Test in all cases: growth of human tumour cells (NCI), 48 h
HOP-92 NSCLC = tested on: HOP-92 NSCLC
SK-OV-3 ovarian = tested on: SK-OV-3 ovarian
RXF 393 renal = tested on: RXF 393 renal
RPMI-8226 leukemia = tested on: RPMI-8226 leukemia
OVCAR-8 ovarian = tested on: OVCAR-8 ovarian
M14 melanoma = tested on: M14 melanoma
UACC-257 melanoma = tested on: UACC-257 melanoma
ACHN renal = tested on: ACHN renal
NCI-H460 lung = tested on: NCI-H460 lung
HS 578T breast = tested on: HS 578T breast
HOP-62 NSCLC = tested on: HOP-62 NSCLC
OVCAR-3 ovarian = tested on: OVCAR-3 ovarian
HL-60(TB) leukemia = tested on: HL-60(TB) leukemia
MCF7 breast = tested on: MCF7 breast
SR leukemia = tested on: SR leukemia
HCT-116 colon = tested on: HCT-116 colon
SNB-75 CNS = tested on: SNB-75 CNS
MOLT-4 leukemia = tested on: MOLT-4 leukemia

Compound	TGI (HOP-92 NSCLC)	TGI (SK-OV-3 ovarian)	TGI (RXF 393 renal)	TGI (RPMI-8226 leukemia)	TGI (OVCAR-8 ovarian)	TGI (M14 melanoma)	TGI (UACC-257 melanoma)	TGI (ACHN renal)	TGI (NCI-H460 lung)	TGI (HS 578T breast)	TGI (HOP-62 NSCLC)	TGI (OVCAR-3 ovarian)	TGI (HL-60(TB) leukemia)	TGI (MCF7 breast)	TGI (SR leukemia)	TGI (HCT-116 colon)	TGI (SNB-75 CNS)	TGI (MOLT-4 leukemia)	GI50 (HCT-116 colon)
CC(=O)NNc1nc(C)c(C(/C=C/c2ccc([N+](=O)[O-])cc2)=N/N)s1	> 100 µM	> 100 µM	> 100 µM	89.2 µM	> 100 µM	> 100 µM	> 100 µM	> 100 µM	> 100 µM	> 100 µM	> 100 µM	> 100 µM	> 100 µM	> 100 µM	> 100 µM	> 100 µM	> 100 µM	> 100 µM	
N/C(=N\S(=O)(=O)c1cccc2nsnc12)Nc1ccc(Cl)cc1	56.5 µM	> 100 µM	> 100 µM	> 100 µM	> 100 µM	> 100 µM	32.5 µM	> 100 µM	67 µM	68.9 µM	> 100 µM	> 100 µM	78 µM	> 100 µM	> 100 µM	> 100 µM	> 100 µM	> 100 µM	
N#CC1Cc2cc3c(cc21)OCO3 (stereo not given)	> 100 µM				> 100 µM	> 100 µM	> 100 µM	> 100 µM	> 100 µM	> 100 µM	> 100 µM	> 100 µM		> 100 µM	> 100 µM	> 100 µM	> 100 µM	> 100 µM	
CC(C)c1nc2cc(C(F)(F)F)ccc2[nH]c1=O	> 100 µM	> 100 µM	> 100 µM	> 100 µM	> 100 µM	> 100 µM	> 100 µM	> 100 µM	> 100 µM	54.5 µM	> 100 µM	> 100 µM	> 100 µM	> 100 µM	> 100 µM	> 100 µM	> 100 µM	> 100 µM	
C=[N+](CNC(=O)CNC(=O)C(Cc1ccc([N+](=O)[O-])cc1)NC(=O)OC(C)(C)C)C(=O)CNC(=O)C(Cc1ccc([N+](=O)[O-])cc1)NC(=O)OC(C)(C)C (stereo not given)	> 100 µM	> 100 µM	> 100 µM	50.4 µM	> 100 µM	> 100 µM		> 100 µM	> 100 µM	> 100 µM	> 100 µM	> 100 µM	46.5 µM	> 100 µM	80.6 µM	> 100 µM	> 100 µM	67.4 µM	
S=C1Cc2c(-c3ccc(Cl)cc3)cc(-c3ccccc3)nc2-c2ccccc2N1	26.7 µM	25.7 µM	21.9 µM	> 100 µM	8.04 µM	49 µM	36.1 µM	27.1 µM	36.2 µM	16.3 µM	24.1 µM	29.8 µM	> 100 µM	> 100 µM	> 100 µM	28.8 µM	17.4 µM	> 100 µM	
CC(=O)c1c(SCCN2CCCC2)n(-c2ccccc2)c(=S)n(-c2ccccc2)c1=O	18.2 µM	> 100 µM	5.63 µM	4.61 µM	23.5 µM	6.63 µM	9.17 µM	3.46 µM	> 46.6 µM	54.2 µM	55 µM	7.22 µM	6.93 µM	3.01 µM	> 100 µM	18.6 µM	31.8 µM	> 23.4 µM	
O=S(=O)(O)CCCC1S(=O)(=O)OCCOS1(=O)=O	> 100 µM	> 100 µM	> 100 µM	> 100 µM	> 100 µM	> 100 µM	> 100 µM	> 100 µM	> 100 µM	> 100 µM	> 100 µM	> 100 µM	> 100 µM	> 100 µM	> 100 µM	> 100 µM	> 100 µM		
CCCN1CC=C(c2cc(C(=O)OCC)[nH]c2-c2cc(C)no2)C1=O	> 100 µM	> 100 µM	> 100 µM	> 100 µM	> 100 µM	> 100 µM	> 100 µM		> 100 µM	> 100 µM	> 100 µM	> 100 µM	> 100 µM	> 100 µM	> 100 µM	> 100 µM	> 100 µM	> 100 µM	
COC(=O)C1CCOC(C)N1C(=O)OC(C)(C)C (stereo not given)		> 100 µM	> 100 µM	> 100 µM	> 100 µM	> 100 µM	> 100 µM	> 100 µM	> 100 µM	> 100 µM	> 100 µM	> 100 µM	> 100 µM	> 100 µM	> 100 µM	> 100 µM	> 100 µM	> 100 µM	
Cc1cc(NS(=O)(=O)c2ccc(NC(=O)c3ccc4[nH]c5ccccc5c(=O)c4c3)cc2)no1	> 100 µM	> 100 µM	90.7 µM	> 100 µM	> 100 µM	> 100 µM	> 100 µM	> 100 µM	> 100 µM	> 100 µM	> 100 µM	> 100 µM	> 100 µM	> 100 µM	> 100 µM	> 100 µM	> 100 µM	> 100 µM	
COP(=O)(Cc1ccc(/C=C/C#N)o1)OC	> 100 µM	> 100 µM	> 100 µM	> 100 µM	> 100 µM	> 100 µM			> 100 µM	> 100 µM	> 100 µM	> 100 µM	> 100 µM	> 100 µM	> 100 µM	> 100 µM	> 100 µM	> 100 µM	
CCOC(=O)C1C(c2ccc(OC)cc2)c2c([nH]n(-c3ccccc3)c2=O)CC1(O)OCC (stereo not given)	> 100 µM			> 100 µM	> 100 µM	> 100 µM	> 100 µM	> 100 µM	> 100 µM	> 100 µM	> 100 µM	> 100 µM	15 µM	> 100 µM	> 100 µM	> 100 µM	> 100 µM	14 µM	
Cc1ccc(O)c(C(c2ccc([N+](=O)[O-])cc2)c2cc(C)ccc2O)c1	28.7 µM	30 µM	26 µM	29.8 µM	30.7 µM	26.7 µM	28.4 µM	19.2 µM		24 µM	23.1 µM	19.9 µM	7.61 µM	20.3 µM	22.8 µM	40.6 µM	15.5 µM	26.3 µM	
O=c1[nH]c2ccc(Cl)cc2c2oc(-c3ccccc3)nc12	52.2 µM	44.1 µM	71.8 µM	64.7 µM	24.8 µM	> 100 µM	> 100 µM	51.3 µM	36.9 µM	41.2 µM	43.6 µM	46.6 µM		> 100 µM	62.3 µM	32.8 µM		> 100 µM	
O=C1Cc2c([nH]c3c(Cl)cccc23)-c2ccccc2N1	> 100 µM	> 100 µM		> 100 µM	> 100 µM	> 100 µM		> 100 µM	> 100 µM	> 100 µM	> 100 µM	> 100 µM	> 100 µM	> 100 µM	> 100 µM	> 100 µM	> 100 µM	> 100 µM	
Cn1c(-c2cccs2)cc(-c2ccccc2)c1-c1cccs1	> 100 µM	> 100 µM	> 100 µM	> 100 µM	> 100 µM	> 100 µM	> 100 µM	> 100 µM	> 100 µM	> 100 µM	51.5 µM	47.6 µM	> 100 µM	> 100 µM	> 100 µM	> 100 µM	> 100 µM	> 100 µM	
CC1=NOC2(C1)C(=O)Nc1ccccc12 (stereo not given)		> 100 µM	> 100 µM	> 100 µM	> 100 µM	> 100 µM	> 100 µM	> 100 µM	> 100 µM	> 100 µM	> 100 µM	> 100 µM	> 100 µM	> 100 µM	> 100 µM	> 100 µM	> 100 µM	> 100 µM	
O=C(Nc1nc(C23CC4CC(CC(C4)C2)C3)cs1)c1c(O)c2ccccc2[nH]c1=O	> 100 µM		> 100 µM	> 100 µM	> 100 µM		> 100 µM	> 100 µM	> 100 µM	> 100 µM	> 100 µM	> 100 µM	> 100 µM	> 100 µM	> 100 µM	> 100 µM		> 100 µM	
CN(C)Cc1cc(N=Nc2cccc(Cl)c2)ccc1O	41 µM	37.9 µM	20.8 µM	55.8 µM	28.5 µM	25.5 µM	29.3 µM	13.5 µM	26.4 µM	29.4 µM	22.9 µM	28.9 µM	37.4 µM	29 µM	54.5 µM	52 µM	39.1 µM	32.5 µM	
O=C1CS(=O)(=O)C(c2cccc(Oc3ccccc3)c2)N1c1cccc(Cl)c1 (stereo not given)	40.5 µM	> 100 µM	52.7 µM		82.8 µM	92.2 µM	46.4 µM	59.5 µM	41.3 µM	97 µM	> 100 µM	95.1 µM	> 100 µM	32.4 µM	41.2 µM	29.6 µM	> 100 µM	58.1 µM	
CCCCCCNC(=O)c1cc(CCc2cc(O)ccc2O)ccc1O	3.87 µM	25 µM	4.39 µM		17.6 µM	18.4 µM	6.26 µM	7.68 µM	27.4 µM	26.4 µM	25 µM	5.94 µM	4.11 µM	12.4 µM	> 29 µM	13.6 µM	14.4 µM	> 24.5 µM	3.59 µM
Cc1n[nH]c(=O)n1C1CCCC1	> 100 µM		> 100 µM	> 100 µM	> 100 µM	> 100 µM	> 100 µM	> 100 µM	> 100 µM	> 100 µM	> 100 µM	> 100 µM	> 100 µM	> 100 µM	> 100 µM	> 100 µM	> 100 µM	> 100 µM	
O=[N+]([O-])c1ccc(-c2nc3ccc([N+](=O)[O-])cc3[nH]2)cc1	59.4 µM	> 100 µM	> 100 µM	> 100 µM	> 100 µM	> 100 µM	> 100 µM	> 100 µM	65.1 µM	> 100 µM	97 µM	> 100 µM		> 100 µM	> 100 µM	38.3 µM	> 100 µM	> 100 µM	
O=S(=O)(N/N=C1\CC2CCC1C2)c1ccccc1 (stereo not given)	> 100 µM	> 100 µM		> 100 µM	> 100 µM	> 100 µM	> 100 µM	> 100 µM	> 100 µM	> 100 µM	> 100 µM	> 100 µM	> 100 µM	> 100 µM	> 100 µM	> 100 µM	> 100 µM	> 100 µM	
Cc1ncc([N+](=O)[O-])n1CCN(C)C(=O)CCCn1ccnc1[N+](=O)[O-]		> 100 µM	> 100 µM	> 100 µM	> 100 µM	> 100 µM	> 100 µM	> 100 µM	> 100 µM	> 100 µM	> 100 µM	> 100 µM	> 100 µM	> 100 µM	> 100 µM	> 100 µM	> 100 µM	> 100 µM	
S=c1nc(Cc2ccc(Cl)cc2)[nH][nH]1	85.7 µM	> 100 µM			> 100 µM	> 100 µM	> 100 µM	> 100 µM	> 100 µM	> 100 µM	> 100 µM	> 100 µM		> 100 µM	> 100 µM	> 100 µM	> 100 µM	> 100 µM	
CN(C)c1nc2oc(-c3ccccc3)c(-c3ccccc3)c2c2nncn12	> 100 µM	> 100 µM	> 100 µM	> 100 µM	> 100 µM	> 100 µM	> 100 µM	> 100 µM		> 100 µM				> 100 µM	> 100 µM	> 100 µM	> 100 µM		
